Literature values as cited in patent US20120141611A1, “METHODS AND COMPOSITIONS USING ERGOTHIONEINE TO TREAT A VARIETY OF HEALTH RELATED FACTORS” (Oxis International Inc., priority 2010, published 2012).
≈ marks a conversion by molar mass, not a printed value. Where “and” joins values, the source holds several entries; their conditions need not be identical. Equal entries are not always repeated. Entries after “also recorded” stand apart in the source; their conditions may differ. Where two headings read alike, the source gives them in different places.

Tests used:
[1] = Rat, cited from earlier work
[2] = cited from earlier work
[3] = Sheep; cited from earlier work
[4] = TLC densitometry, cited from earlier work
[5] = rat; cited from earlier work
[6] = into the organs, principally the liver; cited from earlier work
erythrocyte membrane = conditions: cited from earlier work
[7] = cited from earlier work; remark: listed apart in the source
[8] = room temperature; cited from earlier work
[9] = physiologic pH, does not auto-oxidize; cited from earlier work
Mn-superoxide dismutase = target: T1, Mn-superoxide dismutase (Mus musculus, UniProt P09671); conditions: 12.5 mM; cited from earlier work
T1 sequence (P09671 25-222): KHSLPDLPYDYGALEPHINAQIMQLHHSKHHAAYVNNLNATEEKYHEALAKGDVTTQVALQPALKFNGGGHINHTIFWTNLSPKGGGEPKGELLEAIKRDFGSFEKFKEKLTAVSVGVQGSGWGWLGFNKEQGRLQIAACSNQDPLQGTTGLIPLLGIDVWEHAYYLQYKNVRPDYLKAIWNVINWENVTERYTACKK

Cu/Zn SOD = Cu/Zn SOD (Mus musculus, UniProt P08228); conditions: 12.5 mM; cited from earlier work
Cu/Zn SOD, sequence (P08228 whole entry): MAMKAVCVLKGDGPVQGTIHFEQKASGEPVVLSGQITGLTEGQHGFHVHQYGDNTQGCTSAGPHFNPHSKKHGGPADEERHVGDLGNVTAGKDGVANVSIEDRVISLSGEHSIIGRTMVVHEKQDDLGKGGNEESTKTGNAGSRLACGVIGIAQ

glutathione reductase = target: T2, glutathione reductase (Mus musculus, UniProt P47791); conditions: mouse liver cytosol fractions; cited from earlier work
T2 construct: glutathione peroxidase and glutathione reductase activities in mouse liver cytosol fractions; from tissue; host or cells: mouse liver cytosol fractions (result quoted from the literature)
T2 sequence (P47791 27-500): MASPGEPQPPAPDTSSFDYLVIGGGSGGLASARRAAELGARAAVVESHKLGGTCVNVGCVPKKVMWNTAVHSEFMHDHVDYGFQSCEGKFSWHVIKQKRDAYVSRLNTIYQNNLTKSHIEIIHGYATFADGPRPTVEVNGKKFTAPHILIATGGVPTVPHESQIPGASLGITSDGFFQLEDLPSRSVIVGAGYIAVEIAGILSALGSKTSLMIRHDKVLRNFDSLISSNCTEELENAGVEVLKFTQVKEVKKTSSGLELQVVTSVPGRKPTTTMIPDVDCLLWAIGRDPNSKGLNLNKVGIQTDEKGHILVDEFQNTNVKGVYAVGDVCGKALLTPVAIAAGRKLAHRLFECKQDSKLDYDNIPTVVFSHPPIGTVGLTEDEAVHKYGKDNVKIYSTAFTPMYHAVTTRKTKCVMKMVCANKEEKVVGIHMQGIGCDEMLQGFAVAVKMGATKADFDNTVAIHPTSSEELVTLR

isolated rat heart = conditions: 0.1 mM; cited from earlier work
isolated rabbit heart = conditions: cited from earlier work
erythrocytes = conditions: added to hemolyzed erythrocytes or erythrocyte suspensions; cited from earlier work
human platelets = human platelets in vitro; cited from earlier work
[10] = rats, 8 mg/100 gm body weight for 7 days pre-administration; cited from earlier work
mouse skin = conditions: UV-induced skin damage; cited from earlier work
[11] = low concentrations; cited from earlier work
spermatozoa = conditions: cited from earlier work
rat retina = conditions: NMDA, cited from earlier work
human red cell cells = conditions: 1 mM, intact human red cells in vitro; cited from earlier work
[12] = physiological concentrations; cited from earlier work
[13] = animal experimental model of diabetes; cited from earlier work
[14] = ergothioneine ingestion or administration, humans or animals; cited from earlier work
[15] = cited from earlier work; remark: listed apart in the source

C[N+](C)(C)[C@@H](Cc1c[nH]c(=S)[nH]1)C(=O)[O-] [Ergothioneine, ergothioneine]
Concentration of LE in tissue ([1]; Heart): 1.5 mgs/100 gm fresh tissue | Concentration of LE in tissue ([1]; Intestine): 0.6 mgs/100 gm fresh tissue | Concentration of LE in tissue ([1]; Kidney): 4.3 mgs/100 gm fresh tissue | Concentration of LE in tissue ([1]; Liver): 13.3 mgs/100 gm fresh tissue | Concentration of LE in tissue ([1]; Lungs): 1.5 mgs/100 gm fresh tissue | Concentration of LE in tissue ([1]; Muscle): 0.7 mgs/100 gm fresh tissue | Concentration of LE in tissue ([1]; Plasma): 0.0 mgs/100 gm fresh tissue | Concentration of LE in tissue ([1]; RBC): 10.4 mgs/100 gm fresh tissue | Concentration of LE in tissue ([1]; Spleen): 1.1 mgs/100 gm fresh tissue | Concentration of LE in tissue ([1]; Stomach): 0.4 mgs/100 gm fresh tissue | Concentration of LE in tissue ([1]; Testes): 0.0 mgs/100 gm fresh tissue | Concentration of l-ergothioneine in the blood [1]: 1-6 mg/100 ml blood | Concentration of LE in tissue ([2]; Rabbit, Heart): 2.7 mgs/100 gm fresh tissue | Concentration of LE in tissue ([2]; Rabbit, Kidney): 0.3 mgs/100 gm fresh tissue | Concentration of LE in tissue ([2]; Rabbit, Liver): 0.3 mgs/100 gm fresh tissue | Concentration of LE in tissue ([2]; Rabbit, Lungs): 0.3 mgs/100 gm fresh tissue | Concentration of LE in tissue ([2]; Rabbit, RBC): 10 mgs/100 gm fresh tissue | Concentration of LE in tissue ([2]; Rabbit, Spleen): 1.0 mgs/100 gm fresh tissue | Concentration of LE in tissue ([2]; Rabbit, Testes): 0.1 mgs/100 gm fresh tissue | Concentration of l-ergothioneine in the blood ([2]; Rabbit): 1-10 mg/100 ml blood | Ergothioneine in optic nerves ([2]; optic nerves of the rabbit): 30 µg/g | Concentration of l-ergothioneine in the blood [3]: 2-6 mg/100 ml blood | Level in rat tissue ([4]; brain): 0.41 mg/100 g | Level in rat tissue ([4]; kidney): 1.58 mg/100 g | Level in rat tissue ([4]; liver): 7.82 mg/100 g | Level in rat tissue ([4]; plasma): 0.21 mg/100 g | Level in rat tissue ([4]; testicle): 0.5 mg/100 g | Whole body half-life [5]: approximately 30 days | Disappearance from the plasma after intravenous administration [6]: rapid disappearance | Amount directly penetrating the erythrocyte membrane (erythrocyte membrane): < 1% | Sulfur label recovered in the urine as free sulfate ([7]; 35S-ergothioneine): 35-65% | Dose recovered by urinary excretion ([7]; bolus injected, in approximately 6 hours): 60% | Share of urine products identified as ergothioneine ([7]; bolus injected): About one-third | Share of urine products identified as hercynine ([7]; bolus injected): About one-third | Solubility limit [8]: 900 mM (≈ 206 mg/mL) | Stability in aqueous solution [9]: very stable in aqueous solution | Mitochondrial Mn-superoxide dismutase activity (Mn-superoxide dismutase): nearly doubled | Cytosolic Cu/Zn SOD activity (Cu/Zn SOD): no increased activity | Glutathione reductase activity (glutathione reductase): markedly increased | Protection against reperfusion injury as measured by LDH release (isolated rat heart): protected the isolated rat heart against reperfusion injury | Protection against ischemia-reperfusion injury (isolated rabbit heart): failed to protect | Lactate production (erythrocytes): increased lactate production | CO2 production from pyruvate (human platelets): increases in CO2 production from pyruvate | Production of lactate (human platelets): decreased production of lactate | Hepatic injury after a single injection of ethionine [10]: inhibited | Hepatic lipid peroxide formation [10]: reduced | Protection of mouse skin in vivo (mouse skin): failed to protect mouse skin in vivo | Radioprotection in vitro [11]: very potent radioprotector even at low concentrations | Effect on spermatozoa viability and survival under hydrogen peroxide (spermatozoa): counteracts the effects of hydrogen peroxide on spermatozoa viability and survival | Loss of nonganglion cells (rat retina; rats treated with ergothioneine (43% without)): 31% | Loss of ganglion cells (rat retina; rats treated with ergothioneine (81% without)): 44% | Ameloid Precursor Protein (APP) (rat retina): significant decreases | Glycolytic activity (human red cell cells): significant increase in glycolytic activity | Inactivation of hydroxyl radical [12]: potent diffusion-controlled inactivation | Developmental defects of embryos [13]: reverse the developmental defects to almost that of the control group | Deleterious / negative side effects [14]: No documented negative side effects; also recorded: no deleterious effects | Concentration of LE in the lens of the human eye ([15]; Hypermature cataract): 60.8 mg LE/100 gm and 60.8 +/− 9.8 mg LE/100 gm | Concentration of LE in the lens of the human eye ([15]; Immature cortical cataract): 79.6 mg LE/100 gm and 79.4 +/− 11.7 mg LE/100 gm | Concentration of LE in the lens of the human eye ([15]; Immature nuclear cataract): 94.2 mg LE/100 gm and 94.2 +/− 7.3 mg LE/100 gm | Concentration of LE in the lens of the human eye ([15]; Mature cataract): 71.7 mg LE/100 gm and 71.7 +/− 13.7 mg LE/100 gm | Concentration of LE in the lens of the human eye ([15]; Normal lens): 115.7 mg LE/100 gm and 115.7 +/− 6.3 mg LE/100 gm
